Experimental data as given in US20250236608A1, “EGFR INHIBITORS” (Blueprint Medicines Corporation, priority 2022, published 2025).

Assays:
EGFR L858R = EGFR L858R (Homo sapiens (Human), UniProt P00533, L858R); assay: Biochemical EGFR inhibition assay, EGFR L858R; conditions: Caliper mobility shift; 1.0 mM ATP or ATP Km; read-out: Enz EGFR_L858R IC50
Protocol: (§1) Reactions proceeded until between 10% to 20% total peptides were phosphorylated at room temperature (25° C.) and were terminated with 35 mM 2,2′,2″,2″-(ethane-1,2-diyldinitrilo)tetraacetic acid (EDTA). Product was detected using the Caliper mobility shift detection method where the phosphorylated peptide (product) and substrate were electrophoretically separated and measured. Percent activity was plotted against log concentration of compound and points to generate an apparent IC50.

EGFR (d746-750) = EGFR (d746-750) (Homo sapiens (Human), UniProt P00533, DEL746-750); assay: Biochemical EGFR inhibition assay, EGFR (d746-750); conditions: Caliper mobility shift; 1.0 mM ATP or ATP Km; read-out: Enz EGFR_Exon19-del746-750 IC50
Protocol: as §1

[1] = biological target: pEGFR (Tyr1068) in PC-9 cells (Ex19Del) (Homo sapiens (Human), UniProt P00533, DEL746-750); assay: PC-9 pEGFR AlphaLISA assay; format: cell-based; conditions: 4 hours incubation, p-EGFR (Tyr1068) AlphaLISA, read-out: Ext pEGFR_PC-9 Ex19Del IC50
Protocol: PC-9/A431 pEGFR AlphaLISA Assays
Inhibitory effects of compounds were evaluated in cellular assays that measure level of intracellular phosphorylation of EGFR in PC-9 (ECACC, #90071810, Milipore/Sigma) and A431 cell lines (ATCC, CRL-1555) using AlphaLISA sureFire ultra p-EGFR (Tyr1068) assay kit (PerkinElmer, ALSU-PEGFR-A50K). PC-9 cells were seeded at 3.125×10^5 cells/ml in 40 μL phenol-free DMEM supplemented with 10% FBS per well of a 384 well plate (Corning, 3764), while A431 were seeded at 3.125×10^5 cells/ml in 40 μL in phenol-free DMEM with 0.5% FBS. Cells were allowed to adhere overnight at 37° C./5% CO2. On the next day, compounds were transferred at 4-fold, 10-point serial dilution from compound source plate to cell plates using liquid handler Echo550 and were incubated at 37° C./5% CO2 for 4 hours. A431 cells were stimulated prior harvesting for 10 min with EGF at final concentration of 30 ng/ml in the incubator. Medium was removed from the plates and cells were lysed with 10 μL of 1× AlphaLISA lysis buffer (supplemented with 1× protease/phosphatase inhibitor cocktail) followed by shaking at 600 rpm for 30 minutes at room temperature. Lysates were transferred to Optiplate (Apricot designs) and 5 μl of 1× acceptor bead mix (prepared just before use) was added to each well followed by incubation at room temperature for 1.5-2 h in dark. Then 5 μL of freshly-made donor bead mix is added to each well under subdued lighting or green filters, was mixed well on the shaker and the plate was sealed and left for an overnight incubation at room temperature in dark. On the next day, the plate was read the Envision using standard AlphaLisa settings. Percent of pEGFR inhibition was plotted against log concentration of compounds to generate IC50 values.

Chain of EGFR (d746-750) (P00533 other isoform, or with tags, fused parts or gaps del 1-694/del 746-750 limits assumed): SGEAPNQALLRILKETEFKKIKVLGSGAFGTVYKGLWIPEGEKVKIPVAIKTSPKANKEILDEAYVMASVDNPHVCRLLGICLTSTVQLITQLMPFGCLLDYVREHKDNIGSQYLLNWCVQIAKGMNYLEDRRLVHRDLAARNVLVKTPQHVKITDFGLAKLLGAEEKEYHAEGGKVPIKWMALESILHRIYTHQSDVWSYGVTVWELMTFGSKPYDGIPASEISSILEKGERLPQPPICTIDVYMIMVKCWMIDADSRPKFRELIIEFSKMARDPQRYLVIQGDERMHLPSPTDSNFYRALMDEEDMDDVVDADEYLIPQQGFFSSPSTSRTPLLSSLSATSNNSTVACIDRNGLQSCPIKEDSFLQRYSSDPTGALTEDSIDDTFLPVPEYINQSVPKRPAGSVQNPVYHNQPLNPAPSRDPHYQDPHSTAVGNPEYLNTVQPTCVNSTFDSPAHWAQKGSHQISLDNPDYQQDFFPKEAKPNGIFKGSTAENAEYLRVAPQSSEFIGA
Chain of EGFR L858R (P00533 25-1210 L858R): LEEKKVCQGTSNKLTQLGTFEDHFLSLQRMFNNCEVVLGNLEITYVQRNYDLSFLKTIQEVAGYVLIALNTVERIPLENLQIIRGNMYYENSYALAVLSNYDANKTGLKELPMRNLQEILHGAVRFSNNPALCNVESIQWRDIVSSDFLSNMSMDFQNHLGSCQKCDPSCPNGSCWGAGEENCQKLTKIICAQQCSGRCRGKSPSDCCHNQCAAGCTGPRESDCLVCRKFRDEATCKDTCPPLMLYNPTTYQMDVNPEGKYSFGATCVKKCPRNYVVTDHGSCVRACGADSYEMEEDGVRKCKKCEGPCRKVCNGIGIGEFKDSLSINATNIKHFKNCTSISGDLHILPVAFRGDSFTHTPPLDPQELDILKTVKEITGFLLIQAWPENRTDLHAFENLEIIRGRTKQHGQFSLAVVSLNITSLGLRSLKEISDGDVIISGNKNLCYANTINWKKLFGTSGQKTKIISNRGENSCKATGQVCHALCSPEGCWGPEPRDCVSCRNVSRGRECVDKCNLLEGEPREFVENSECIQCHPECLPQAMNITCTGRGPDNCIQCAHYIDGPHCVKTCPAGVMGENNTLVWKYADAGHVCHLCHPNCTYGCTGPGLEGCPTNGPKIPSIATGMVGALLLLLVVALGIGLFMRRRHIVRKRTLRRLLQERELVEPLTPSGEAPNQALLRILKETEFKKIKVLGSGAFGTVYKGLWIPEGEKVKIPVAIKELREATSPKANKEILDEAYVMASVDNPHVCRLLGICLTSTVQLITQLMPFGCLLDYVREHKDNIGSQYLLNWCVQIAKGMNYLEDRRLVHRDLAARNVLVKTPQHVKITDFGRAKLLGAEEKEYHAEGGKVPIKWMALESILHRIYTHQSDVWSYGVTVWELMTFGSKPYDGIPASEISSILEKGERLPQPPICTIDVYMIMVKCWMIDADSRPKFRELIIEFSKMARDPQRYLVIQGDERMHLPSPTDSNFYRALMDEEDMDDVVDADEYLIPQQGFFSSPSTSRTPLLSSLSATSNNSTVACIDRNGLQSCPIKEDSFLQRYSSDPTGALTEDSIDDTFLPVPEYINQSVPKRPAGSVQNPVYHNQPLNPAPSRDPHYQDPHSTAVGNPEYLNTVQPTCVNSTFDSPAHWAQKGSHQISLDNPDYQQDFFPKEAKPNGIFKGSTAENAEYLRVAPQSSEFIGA
Chain of pEGFR (Tyr1068) in PC-9 cells (Ex19Del) (P00533 other isoform, or with tags, fused parts or gaps del 746-750): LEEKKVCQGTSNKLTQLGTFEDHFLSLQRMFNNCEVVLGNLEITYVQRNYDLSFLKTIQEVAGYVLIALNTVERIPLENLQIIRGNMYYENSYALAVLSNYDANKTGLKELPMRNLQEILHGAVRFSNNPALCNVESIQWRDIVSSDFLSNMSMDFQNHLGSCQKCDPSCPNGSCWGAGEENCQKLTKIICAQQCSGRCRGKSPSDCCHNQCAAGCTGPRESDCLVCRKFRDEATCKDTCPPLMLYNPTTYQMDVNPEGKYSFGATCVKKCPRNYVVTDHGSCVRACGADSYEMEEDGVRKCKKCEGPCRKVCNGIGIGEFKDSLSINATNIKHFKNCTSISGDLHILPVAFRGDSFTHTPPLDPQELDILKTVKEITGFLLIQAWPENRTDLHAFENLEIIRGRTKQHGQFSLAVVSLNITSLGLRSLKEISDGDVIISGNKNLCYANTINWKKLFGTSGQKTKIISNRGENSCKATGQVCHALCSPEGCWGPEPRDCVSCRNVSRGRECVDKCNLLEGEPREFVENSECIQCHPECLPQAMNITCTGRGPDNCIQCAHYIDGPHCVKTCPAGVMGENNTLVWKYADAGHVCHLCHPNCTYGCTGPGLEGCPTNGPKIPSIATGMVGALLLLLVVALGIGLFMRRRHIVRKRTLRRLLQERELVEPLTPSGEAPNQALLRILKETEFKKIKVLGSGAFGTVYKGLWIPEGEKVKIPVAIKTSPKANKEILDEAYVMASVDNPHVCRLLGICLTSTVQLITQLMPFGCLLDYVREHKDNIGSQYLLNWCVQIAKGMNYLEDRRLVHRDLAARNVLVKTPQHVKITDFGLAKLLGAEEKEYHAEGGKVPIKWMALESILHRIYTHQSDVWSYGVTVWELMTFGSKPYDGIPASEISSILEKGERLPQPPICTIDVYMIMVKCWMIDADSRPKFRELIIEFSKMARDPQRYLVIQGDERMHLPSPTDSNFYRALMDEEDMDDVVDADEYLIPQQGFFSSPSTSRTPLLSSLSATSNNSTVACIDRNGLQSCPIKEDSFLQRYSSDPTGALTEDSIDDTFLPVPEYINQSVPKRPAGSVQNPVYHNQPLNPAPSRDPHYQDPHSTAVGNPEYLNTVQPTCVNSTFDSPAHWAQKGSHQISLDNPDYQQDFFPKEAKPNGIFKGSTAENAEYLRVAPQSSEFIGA

Q: With `CCOc1cc2ncnc(-c3cn(CC(F)F)nc3-c3ccccc3)c2cc1OC` [Example 19, 4-(1-(2,2-difluoroethyl)-3-phenyl-1H-pyrazol-4-yl)-7-ethoxy-6-methoxyquinazoline] as the compound, how does the IC50 (EGFR L858R) read?
A: The IC50 was 1.6 nM.

Q: What about the IC50 (EGFR (d746-750)) of the same compound?
A: The IC50 was 0.8 nM.

Q: What about the IC50 [1] of the same compound?
A: Its IC50 is 1.3 nM.

Q: What does the source list for `COc1cc2ncnc(-c3cn(C)nc3-c3ccccc3F)c2nc1NC(=O)C1(C(F)F)CC1` [Example 366, 1-(difluoromethyl)-N-(4-(3-(2-fluorophenyl)-1-methyl-1H-pyrazol-4-y1)-7-methoxypyrido[3,2-d]pyrimidin-6-yl)cyclopropane-1-carboxamide]?
A: IC50 (EGFR L858R): 1.4 nM; IC50 (EGFR (d746-750)): 0.8 nM; IC50 [1]: 1.4 nM

Q: With `COc1cc2ncnc(-c3cn(C)nc3-c3ccccc3)c2cc1NC(=O)N1C[C@@H](C)N(C)C[C@@H]1C` [Example 182, (2S,5R)—N-(7-methoxy-4-(1-methyl-3-phenyl-1H-pyrazol-4-yl)quinazolin-6-yl)-2,4,5-trimethylpiperazine-1-carboxamide] as the compound, how does the IC50 (EGFR L858R) read?
A: The IC50 was 4.1 nM.

Q: And the IC50 (EGFR (d746-750))?
A: Its IC50 is 1.8 nM.

Q: What about the IC50 [1] of the same compound?
A: Its IC50 is 5.2 nM.

Q: Which IC50 (EGFR L858R) does the source give for `COc1cc2ncnc(-c3cn(C)nc3-c3ccccc3)c2cc1-c1ccc(OC)c2n[nH]cc12` [Example 151, 7-methoxy-6-(7-methoxy-2H-indazol-4-yl)-4-(1-methyl-3-phenyl-1H-pyrazol-4-yl)quinazoline] here?
A: Its IC50 is 8.2 nM.

Q: And the IC50 (EGFR (d746-750))?
A: Its IC50 is 1.9 nM.

Q: And the IC50 [1]?
A: Its IC50 is 8.7 nM.

Q: Which IC50 (EGFR L858R) does the source give for `Cn1cc(-c2ncnc3cc(OC(F)F)c(NC(=O)c4ccc(C5CC5)nc4)nc23)c(-c2ccccc2)n1` [Example 470, 6-cyclopropyl-N-[7-(difluoromethoxy)-4-(1-methyl-3-phenyl-1H-pyrazol-4-yl)pyrido[3,2-d]pyrimidin-6-yl]pyridine-3-carboxamide] here?
A: Its IC50 is 26 nM.

Q: What about the IC50 (EGFR (d746-750)) of the same compound?
A: Its IC50 is 4.5 nM.

Q: And the IC50 [1]?
A: The IC50 was 23.8 nM.

Q: For `COc1cc2ncnc(-c3cn(C)nc3-c3ccc(F)cc3)c2nc1NC(=O)[C@]12C[C@H]1CN(C)C2` (single isomer, unassigned) [Example 411, (1R,5R)—N-(4-(3-(4-fluorophenyl)-1-methyl-1H-pyrazol-4-yl)-7-methoxypyrido[3,2-d]pyrimidin-6-yl)-3-methyl-3-azabicyclo[3.1.0]hexane-1-carboxamide or (1S,5S)—N-(4-(3-(4-fluorophenyl)-1-methyl-1H-pyrazol-4-yl)-7-methoxypyrido[3,2-d]pyrimidin-6-yl)-3-methyl-3-azabicyclo[3.1.0]hexane-1-carboxamide], which IC50 (EGFR L858R) is on record?
A: Its IC50 is 2.6 nM.

Q: What about the IC50 (EGFR (d746-750)) of the same compound?
A: Its IC50 is 1.3 nM.

Q: And the IC50 [1]?
A: The IC50 was 2.3 nM.

Q: Which IC50 (EGFR L858R) does the source give for `COc1cc2ncnc(-c3cn(C(F)F)nc3-c3ccccc3)c2nc1NC(=O)C12CC(C1)C2` [Example 364, N-(4-(1-(difluoromethyl)-3-phenyl-1H-pyrazol-4-yl)-7-methoxypyrido[3,2-d]pyrimidin-6-yl)bicyclo[1.1.1]pentane-1-carboxamide] here?
A: Its IC50 is 2.1 nM.

Q: What about the IC50 (EGFR (d746-750)) of the same compound?
A: Its IC50 is 1 nM.

Q: What about the IC50 [1] of the same compound?
A: The IC50 was 4 nM.

Q: `COc1cc2ncnc(-c3cn(C)nc3-c3ccc(F)cc3)c2cc1NC(=O)C1(CN(C)C)CC1` [Example 211, 1-((dimethylamino)methyl)-N-(4-(3-(4-fluorophenyl)-1-methyl-1H-pyrazol-4-yl)-7-methoxyquinazolin-6-yl)cyclopropane-1-carboxamide] was tested. Which IC50 (EGFR L858R) did it give?
A: The IC50 was 2.8 nM.

Q: And the IC50 (EGFR (d746-750))?
A: The IC50 was 1.5 nM.

Q: And the IC50 [1]?
A: The IC50 was 3.3 nM.

Q: What does the source list for `CCOc1cc2ncnc(-c3cn(C)nc3-c3ccccc3)c2nc1NC(=O)[C@@]12COC[C@@H]1C2` (single isomer, unassigned) [Example 380, (1R,5R)—N-(7-ethoxy-4-(1-methyl-3-phenyl-1H-pyrazol-4-yl)pyrido[3,2-d]pyrimidin-6-yl)-3-oxabicyclo[3.1.0]hexane-1-carboxamide or (1S,5S)—N-(7-ethoxy-4-(1-methyl-3-phenyl-1H-pyrazol-4-yl)pyrido[3,2-d]pyrimidin-6-yl)-3-oxabicyclo[3.1.0]hexane-1-carboxamide]?
A: IC50 (EGFR L858R): 2.5 nM; IC50 (EGFR (d746-750)): 0.7 nM; IC50 [1]: 1.4 nM

Q: What does the source list for `COc1cc2ncnc(-c3cn(C)nc3-c3ccc(F)cc3F)c2cc1N1CCOCC1` [Example 166, 4-(4-(3-(2,4-difluorophenyl)-1-methyl-1H-pyrazol-4-yl)-7-methoxyquinazolin-6-yl)morpholine]?
A: IC50 (EGFR L858R): 1.7 nM; IC50 (EGFR (d746-750)): 0.7 nM; IC50 [1]: 3.2 nM

Q: With `COc1cc2ncnc(-c3cn(C)nc3-c3ccccc3)c2cc1O[C@@H]1CN(C)C[C@H]1F` [Example 7, 6-(((3R,4R)-4-fluoro-1-methylpyrrolidin-3-yl)oxy)-7-methoxy-4-(1-methyl-3-phenyl-1H-pyrazol-4-yl)quinazoline] as the compound, how does the IC50 (EGFR L858R) read?
A: The IC50 was 3.2 nM.

Q: And the IC50 (EGFR (d746-750))?
A: The IC50 was 1.6 nM.

Q: And the IC50 [1]?
A: The IC50 was 5.5 nM.

Q: What does the source list for `CCC(=O)Nc1cc2c(-c3cn(CC(F)F)nc3-c3ccccc3)ncnc2cc1OC` [Example 250, N-(4-(1-(2,2-difluoroethyl)-3-phenyl-1H-pyrazol-4-yl)-7-methoxyquinazolin-6-yl)propionamide]?
A: IC50 (EGFR L858R): 1.4 nM; IC50 (EGFR (d746-750)): 1 nM; IC50 [1]: 0.9 nM

Q: Which IC50 (EGFR L858R) does the source give for `COc1cc2ncnc(-c3cn(C)nc3-c3ccccc3)c2cc1OC(=O)N1C(C)CN(C)C[C@H]1C` (stereo in doubt) [Example 90, 7-methoxy-4-(1-methyl-3-phenyl-1H-pyrazol-4-yl)quinazolin-6-yl (2R,6R)-2,4,6-trimethylpiperazine-1-carboxylate] here?
A: The IC50 was 14 nM.

Q: What about the IC50 (EGFR (d746-750)) of the same compound?
A: The IC50 was 8.5 nM.

Q: And the IC50 [1]?
A: The IC50 was 31.6 nM.

Q: Which results are given for `COc1cc2ncnc(-c3cn(C)nc3-c3cccc(O)c3)c2nc1NC(=O)C1(C(F)(F)F)CC1` [Example 422, N-(4-(3-(3-hydroxyphenyl)-1-methyl-1H-pyrazol-4-yl)-7-methoxypyrido[3,2-d]pyrimidin-6-yl)-1-(trifluoromethyl)cyclopropane-1-carboxamide]?
A: IC50 (EGFR L858R): 6.7 nM; IC50 (EGFR (d746-750)): 1 nM; IC50 [1]: 4.1 nM

Q: Which IC50 (EGFR L858R) does the source give for `COc1cc2ncnc(-c3cn(C)nc3-c3ccccc3)c2cc1N1CCN(C)C1=O` [Example 176, 1-(7-methoxy-4-(1-methyl-3-phenyl-1H-pyrazol-4-yl)quinazolin-6-yl)-3-methylimidazolidin-2-one] here?
A: The IC50 was 5.4 nM.

Q: And the IC50 (EGFR (d746-750))?
A: Its IC50 is 3 nM.

Q: And the IC50 [1]?
A: Its IC50 is 11 nM.

Q: Which IC50 (EGFR L858R) does the source give for `COc1cc2ncnc(-c3cnn(C(F)(F)F)c3-c3ccccc3)c2cc1NC(=O)C12CC(C1)C2` [Example 485, N-(7-methoxy-4-(5-phenyl-1-(trifluoromethyl)-1H-pyrazol-4-yl)quinazolin-6-yl)bicyclo[1.1.1]pentane-1-carboxamide] here?
A: The IC50 was 121 nM.

Q: And the IC50 (EGFR (d746-750))?
A: Its IC50 is 76.3 nM.

Q: What about the IC50 [1] of the same compound?
A: Its IC50 is 1210 nM.

Q: Which results are given for `COc1cc2ncnc(-c3c(-c4ccccc4)nn(C)c3C)c2cc1OC(=O)N1CCN(C)C[C@@H]1C` [Example 482, 4-(1,5-dimethyl-3-phenyl-1H-pyrazol-4-yl)-7-methoxyquinazolin-6-yl(S)-2,4-dimethylpiperazine-1-carboxylate]?
A: IC50 (EGFR L858R): 207 nM; IC50 (EGFR (d746-750)): 97 nM; IC50 [1]: 320 nM

Q: How did the IC50 (EGFR L858R) turn out when `Cn1cc(-c2ncnc3cc(OC4CC4)c(NC(=O)[C@]45COCC4C5)nc23)c(-c2ccccc2)n1` (stereo partly drawn) [Example 459, (1S)—N-[7-cyclopropoxy-4-(1-methyl-3-phenyl-1H-pyrazol-4-yl)pyrido[3,2-d]pyrimidin-6-yl]-3-oxabicyclo[3.1.0]hexane-1-carboxamide] was run?
A: The IC50 was 3.8 nM.

Q: What about the IC50 (EGFR (d746-750)) of the same compound?
A: Its IC50 is 1 nM.

Q: And the IC50 [1]?
A: Its IC50 is 1.2 nM.

Q: Which results are given for `COc1cc2ncnc(-c3cn(CC(F)F)nc3-c3ccccc3)c2cc1OCCCN1CCOCC1` [Example 23, 4-(3-((4-(1-(2,2-difluoroethyl)-3-phenyl-1H-pyrazol-4-yl)-7-methoxyquinazolin-6-yl)oxy)propyl)morpholine]?
A: IC50 (EGFR L858R): 1.9 nM; IC50 (EGFR (d746-750)): 0.9 nM; IC50 [1]: 0.8 nM

Q: What does the source list for `CC(C)Oc1cc2ncnc(-c3cn(C)nc3-c3ccccc3)c2cc1OC(=O)N1CCOC[C@H]1C` [Example 71, 7-isopropoxy-4-(1-methyl-3-phenyl-1H-pyrazol-4-yl)quinazolin-6-yl (R)-3-methylmorpholine-4-carboxylate]?
A: IC50 (EGFR L858R): 4.5 nM; IC50 (EGFR (d746-750)): 2.5 nM; IC50 [1]: 6.8 nM

Q: What does the source list for `COc1cc2ncnc(-c3cn(C)nc3-c3ccc(F)cc3F)c2nc1NC(=O)C12CC(C1)C2` [Example 421, N-(4-(3-(2,4-difluorophenyl)-1-methyl-1H-pyrazol-4-yl)-7-methoxypyrido[3,2-d]pyrimidin-6-yl)bicyclo[1.1.1]pentane-1-carboxamide]?
A: IC50 (EGFR L858R): 1.3 nM; IC50 (EGFR (d746-750)): 1.8 nM; IC50 [1]: 1.9 nM
